The supplement of paper PMC11061612

Legend:
Trametinib = compound: CC(=O)Nc1cccc(-n2c(=O)n(C3CC3)c(=O)c3c(Nc4ccc(I)cc4F)n(C)c(=O)c(C)c32)c1 [Trametinib]; conditions: max 1 µM
Method in brief: (§1)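 In 1536-well plates, cancer cell lines in 7.5 μl DMEM/F12 or RPMI with 10% FBS spent 24 hours at 37°C and 5% CO2 and were then dosed for 72 hours with final DMSO typically 0.2%. Viability was read by CellTiter-Glo 2.0 luminescence and scaled between blank-well and DMSO-well means. The single-agent IC50 was fitted from dose responses using a logistic curve in a non-linear mixed effects model, and that logistic curve had two parameters.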

AZD1390 = compound: CC(C)n1c(=O)n(C)c2cnc3cc(F)c(-c4ccc(OCCCN5CCCCC5)nc4)cc3c21 [AZD1390]; conditions: max 0.3 µM
Method in brief: as §1

AZD5153 = compound: COc1nnc2ccc(N3CCC(c4ccc(OCCN5CCN(C)C(=O)[C@H]5C)cc4)CC3)nn12 [AZD5153]; conditions: max 1 µM
Method in brief: as §1

SG3199 = compound: CC1=CN2[C@@H](C1)C=NC3=CC(=C(C=C3C2=O)OC)OCCCCCOC4=C(C=C5C(=C4)N=C[C@@H]6CC(=CN6C5=O)C)OC [SG3199]; conditions: max 0.001 µM
Method in brief: as §1

Gefitinib = compound: COc1cc2ncnc(Nc3ccc(F)c(Cl)c3)c2cc1OCCCN1CCOCC1 [Gefitinib]; conditions: max 10 µM
Method in brief: as §1

AZD8186 = compound: C[C@@H](Nc1cc(F)cc(F)c1)c1cc(C(=O)N(C)C)cc2c(=O)cc(N3CCOCC3)oc12 [AZD8186]; conditions: max 3 µM
Method in brief: as §1

AZD0156 = compound: CN(C)CCCOc1ccc(-c2ccc3ncc4c(c3c2)n(C2CCOCC2)c(=O)n4C)cn1 [AZD0156]; conditions: max 3 µM
Method in brief: as §1

Capivasertib = compound: C1CN(CCC1(C(=O)N[C@@H](CCO)C2=CC=C(C=C2)Cl)N)C3=NC=NC4=C3C=CN4 [Capivasertib]; conditions: max 10 µM
Method in brief: as §1

Crizotinib = compound: C[C@@H](Oc1cc(-c2cnn(C3CCNCC3)c2)cnc1N)c1c(Cl)ccc(F)c1Cl [Crizotinib]; conditions: max 10 µM
Method in brief: as §1

Lapatinib = compound: CS(=O)(=O)CCNCc1ccc(-c2ccc3ncnc(Nc4ccc(OCc5cccc(F)c5)c(Cl)c4)c3c2)o1 [Lapatinib]; conditions: max 10 µM
Method in brief: as §1

Dasatinib = compound: CC1=C(C(=CC=C1)Cl)NC(=O)C2=CN=C(S2)NC3=CC(=NC(=N3)C)N4CCN(CC4)CCO [Dasatinib]; conditions: max 2 µM
Method in brief: as §1

Doxorubicin = compound: COc1cccc2c1C(=O)c1c(O)c3c(c(O)c1C2=O)C[C@@](O)(C(=O)CO)C[C@@H]3O[C@H]1C[C@H](N)[C@H](O)[C@H](C)O1 [Doxorubicin]; conditions: max 1 µM
Method in brief: as §1

AZD2811 = compound: CCN(CCO)CCCOc1ccc2c(Nc3cc(CC(=O)Nc4cccc(F)c4)[nH]n3)ncnc2c1 [AZD2811]; conditions: max 1 µM
Method in brief: as §1

AZD5991 = compound: Cc1c2c(nn1C)CSCc1cc(n(C)n1)CSc1cc(c3ccccc3c1)OCCCc1c(C(=O)O)n(C)c3c-2c(Cl)ccc13 [AZD5991]; conditions: max 1 µM
Method in brief: as §1

AZD4320 = compound: CN(CC[C@H](CSC1=CC=CC=C1)NC2=C(C=C(C=C2)S(=O)(=O)NC(=O)C3=CC=C(C=C3)N4CCC(CC4)[C@H](C5=CC=CC=C5C6=CC=C(C=C6)Cl)O)S(=O)(=O)C(F)(F)F)CCO [AZD4320]; conditions: max 1 µM
Method in brief: as §1

Savolitinib = compound: C[C@@H](c1ccc2nccn2c1)n1nnc2ncc(-c3cnn(C)c3)nc21 [Savolitinib]; conditions: max 1 µM
Method in brief: as §1

Olaparib = compound: O=C(c1cc(Cc2n[nH]c(=O)c3ccccc23)ccc1F)N1CCN(C(=O)C2CC2)CC1 [Olaparib]; conditions: max 10 µM
Method in brief: as §1

Prexasertib = compound: COc1cccc(OCCCN)c1-c1cc(Nc2cnc(C#N)cn2)n[nH]1 [Prexasertib]; conditions: max 1 µM
Method in brief: as §1

Palbociclib = compound: CC(=O)c1c(C)c2cnc(Nc3ccc(N4CCNCC4)cn3)nc2n(C2CCCC2)c1=O [Palbociclib]; conditions: max 10 µM
Method in brief: as §1

Taselisib = compound: Cc1nc(-c2cn3c(n2)-c2ccc(-c4cnn(C(C)(C)C(N)=O)c4)cc2OCC3)n(C(C)C)n1 [Taselisib]; conditions: max 10 µM
Method in brief: as §1

Selumetinib = compound: Cn1cnc2c(F)c(Nc3ccc(Br)cc3Cl)c(C(=O)NOCCO)cc21 [Selumetinib]; conditions: max 10 µM
Method in brief: as §1

SN-38 = compound: CCc1c2c(nc3ccc(O)cc13)-c1cc3c(c(=O)n1C2)COC(=O)[C@]3(O)CC [SN-38]; conditions: max 0.3 µM
Method in brief: as §1

Alisertib = compound: COc1cc(Nc2ncc3c(n2)-c2ccc(Cl)cc2C(c2c(F)cccc2OC)=NC3)ccc1C(=O)O [Alisertib]; conditions: max 10 µM
Method in brief: as §1

AZD1775 = compound: C=CCn1c(=O)c2cnc(Nc3ccc(N4CCN(C)CC4)cc3)nc2n1-c1cccc(C(C)(C)O)n1 [AZD1775]; conditions: max 3 µM
Method in brief: as §1

AZD7648 = compound: Cc1cc2ncnn2cc1Nc1ncc2c(n1)n(C1CCOCC1)c(=O)n2C [AZD7648]; conditions: max 10 µM
Method in brief: as §1

AZD6738 = compound: C[C@@H]1COCCN1C2=NC(=NC(=C2)C3(CC3)[S@](=N)(=O)C)C4=C5C=CNC5=NC=C4 [AZD6738]; conditions: max 10 µM
Method in brief: as §1

Venetoclax = compound: CC1(C)CCC(CN2CCN(c3ccc(C(=O)NS(=O)(=O)c4ccc(NCC5CCOCC5)c([N+](=O)[O-])c4)c(Oc4cnc5[nH]ccc5c4)c3)CC2)=C(c2ccc(Cl)cc2)C1 [Venetoclax]; conditions: max 1 µM
Method in brief: as §1

Row | Cell Line | IC50, cell viability 72 h (Trametinib) [µM] | IC50, cell viability 72 h (AZD1390) [µM] | IC50, cell viability 72 h (AZD5153) [µM] | IC50, cell viability 72 h (SG3199) [µM] | IC50, cell viability 72 h (Gefitinib) [µM] | IC50, cell viability 72 h (AZD8186) [µM] | IC50, cell viability 72 h (AZD0156) [µM] | IC50, cell viability 72 h (Capivasertib) [µM] | IC50, cell viability 72 h (Crizotinib) [µM] | IC50, cell viability 72 h (Lapatinib) [µM] | IC50, cell viability 72 h (Dasatinib) [µM] | IC50, cell viability 72 h (Doxorubicin) [µM] | IC50, cell viability 72 h (AZD2811) [µM] | IC50, cell viability 72 h (AZD5991) [µM] | IC50, cell viability 72 h (AZD4320) [µM] | IC50, cell viability 72 h (Savolitinib) [µM] | IC50, cell viability 72 h (Olaparib) [µM] | IC50, cell viability 72 h (Prexasertib) [µM] | IC50, cell viability 72 h (Palbociclib) [µM] | IC50, cell viability 72 h (Taselisib) [µM] | IC50, cell viability 72 h (Selumetinib) [µM] | IC50, cell viability 72 h (SN-38) [µM] | IC50, cell viability 72 h (Alisertib) [µM] | IC50, cell viability 72 h (AZD1775) [µM] | IC50, cell viability 72 h (AZD7648) [µM] | IC50, cell viability 72 h (AZD6738) [µM] | IC50, cell viability 72 h (Venetoclax) [µM]
1 | EPLC-272H (Other Solid Carcinomas) | 0.0227 | > 0.3 | 0.116 | > 0.001 | 5.46 | > 3 | > 3 | 1.8 | > 10 | 5.77 | 0.148 | > 1 | > 1 | 0.391 | > 1 | > 1 | > 10 | 0.00851 | > 10 | 0.256 | 2.28 | 0.126 | > 10 | 0.454 | > 10 | 1 | > 1
2 | ESO26 (Esophageal Adenocarcinoma) | > 1 | > 0.3 | 0.398 | > 0.001 | 4.7 | > 3 | > 3 | 8.59 | > 10 | 0.814 | > 2 | > 1 | > 1 | > 1 | > 1 | > 1 | > 10 | 0.38 | > 10 | 1.84 | > 10 | 0.223 | > 10 | 1.47 | > 10 | > 10 | > 1
3 | EW-16 (Ewing's Sarcoma) | > 1 | > 0.3 | > 1 | > 0.001 | > 10 | > 3 | > 3 | > 10 | > 10 | > 10 | > 2 | 0.0719 | 0.837 | > 1 | > 1 | > 1 | > 10 | 0.726 | > 10 | 5.72 | > 10 | 0.00319 | 2.28 | 0.581 | > 10 | > 10 | > 1
4 | G-402 (Other Solid Carcinomas) | 0.563 | > 0.3 | 0.0985 | > 0.001 | > 10 | > 3 | > 3 | 8.69 | 7.96 | > 10 | 0.319 | 0.123 | 0.475 | 0.251 | > 1 | > 1 | > 10 | 0.523 | > 10 | 2.42 | > 10 | 0.027 | 1.97 | 2.7 | > 10 | 7.01 | > 1
